Test results reported in US20050118276A1, “Coated metal pyrithione particles for treatment of microorganisms” (Arch Chemicals, Inc., priority 2003, published 2005).

Tested on: Malassezia furfur
Assay: comparative corneofungimetry bioassay on human stratum corneum strippings
Type: cell-based
Details: for Median positive fungal cells# from 20 samples: 9 days at 27° C., neutral red vital stain, counted by mm^2
[1] = 1% zinc pyrithione water suspension
[2] = formulated shampoo containing 1% zinc pyrithione

Description: As a more advanced test, “corneofungimetry” was used to evaluate the particles prepared in accordance with the Example and Comparative Examples. This test is a good pre-clinical screening method because it requires growing the Malassezia furfur sp on a substrate that is more representative of its natural environment. Cyanoacrylate is used to harvest a layer of skin, and these skin surface strippings are treated with olive oil to simulate sebum. The prepared skin samples are then treated with the actives under investigation, inoculated with the microorganism of interest and incubated.
The corneofungimetry bioassay was performed on normal stratum corneum harvested from 20 healthy volunteers using cyanoacrylate adhesive. Samples were dipped into olive oil and stored in a sterile environment for 3 days.
Malassezia furfur was cultured on MLNA (Modified Leeming and Notman Agar) medium. Suspensions of fungal cells were prepared in physiologic saline (10^4-10^5 cells/ml). Aliquots of 250 μl of these suspensions were deposited onto the stratum corneum samples and incubated under moist conditions at 27° C. for 9 days. Samples were then stained using neutral red as a vital stain identifying living fungi growing on the human stratum corneum. The number of positive fungal cells was counted by mm^2 using computerized image analysis (Analysis Olympus). The medians and ranges were determined. Between-product comparisons were performed using the paired non-parametric Friedman test followed by the Dunn test.

Substance: zinc pyrithione [Uncoated]
- % killing compared to saline control [1]: 44%
- Median positive fungal cells# from 20 samples [1]: 451
- % killing compared to saline control [2]: 52%
- Median positive fungal cells# from 20 samples [2]: 363
